Laboratory results as given in patent publication US20250186405A1, “Compound For Use In Treating Narcolepsy” (Alkermes, Inc., priority 2023, published 2025).

Tested on: healthy adult subjects
Test: Part 2 MAD: treatment-emergent adverse events, once daily for 10 days (N = 6 per dose)
Type: in vivo, human
Text: Part 2 of the study is a MAD evaluation in healthy subjects consisting of 4 cohorts: Cohorts 1-4 received powder-in-capsule or matching placebo. Dose levels were as follows:
Safety assessments were made. A plasma PK sample was collected pre-dose on Day 8.

CS(=O)(=O)N[C@H]1CCCN2C(=O)COc3ccccc3C3CCC(CC3)OCC12 (stereo partly drawn) [Compound A, N-[(4S,4aR,7α,10α)-1,2,3,4,4a,5,7,8,9,10,16,17-dodecahydro-17-oxo-7,10-ethanopyrido[1,2-d][1,7,4]benzodioxaazacyclotridecin-4-yl]methanesulfonamide]
AE Leading to Study Drug Discontinuation (3 mg): 0 n | Any SAEs (3 mg): 0 n | Any TEAE (3 mg): 2 n | Death (3 mg): 0 n | TEAE Abdominal pain (3 mg): 0 n | TEAE Abdominal pain lower (3 mg): 0 n | TEAE Abnormal dreams (3 mg): 1 n | TEAE Back pain (3 mg): 0 n | TEAE Balance disorder (3 mg): 0 n | TEAE Blood pressure systolic increased (3 mg): 0 n | TEAE Cough (3 mg): 1 n | TEAE Depressed mood (3 mg): 0 n | TEAE Diarrhoea (3 mg): 0 n | TEAE Dizziness (3 mg): 0 n | TEAE Euphoric mood (3 mg): 0 n | TEAE Feeling of relaxation (3 mg): 0 n | TEAE Headache (3 mg): 0 n | TEAE Hypervigilance (3 mg): 0 n | TEAE Insomnia (3 mg): 0 n | TEAE Nocturia (3 mg): 0 n | TEAE Photophobia (3 mg): 0 n | TEAE Pollakiuria (3 mg): 0 n | TEAE Salivary hypersecretion (3 mg): 0 n | TEAE Visual impairment (3 mg): 0 n | TEAE Vomiting (3 mg): 0 n | TEAE by Highest Relationship: Not Related (3 mg): 2 n | TEAE by Highest Relationship: Related (3 mg): 0 n | TEAE by Highest Severity: Mild (3 mg): 2 n | TEAE by Highest Severity: Moderate (3 mg): 0 n | TEAE by Highest Severity: Severe (3 mg): 0 n | AE Leading to Study Drug Discontinuation (8 mg): 0 n | Any SAEs (8 mg): 0 n | Any TEAE (8 mg): 5 n | Death (8 mg): 0 n | TEAE Abdominal pain (8 mg): 1 n | TEAE Abdominal pain lower (8 mg): 1 n | TEAE Abnormal dreams (8 mg): 0 n | TEAE Back pain (8 mg): 0 n | TEAE Balance disorder (8 mg): 0 n | TEAE Blood pressure systolic increased (8 mg): 0 n | TEAE Cough (8 mg): 0 n | TEAE Depressed mood (8 mg): 1 n | TEAE Diarrhoea (8 mg): 2 n | TEAE Dizziness (8 mg): 0 n | TEAE Euphoric mood (8 mg): 0 n | TEAE Feeling of relaxation (8 mg): 0 n | TEAE Headache (8 mg): 0 n | TEAE Hypervigilance (8 mg): 1 n | TEAE Insomnia (8 mg): 2 n | TEAE Nocturia (8 mg): 1 n | TEAE Photophobia (8 mg): 1 n | TEAE Pollakiuria (8 mg): 0 n | TEAE Salivary hypersecretion (8 mg): 0 n | TEAE Visual impairment (8 mg): 0 n | TEAE Vomiting (8 mg): 1 n | TEAE by Highest Relationship: Not Related (8 mg): 3 n | TEAE by Highest Relationship: Related (8 mg): 2 n | TEAE by Highest Severity: Mild (8 mg): 4 n | TEAE by Highest Severity: Moderate (8 mg): 1 n | TEAE by Highest Severity: Severe (8 mg): 0 n | AE Leading to Study Drug Discontinuation (15 mg): 0 n | Any SAEs (15 mg): 0 n | Any TEAE (15 mg): 3 n | Death (15 mg): 0 n | TEAE Abdominal pain (15 mg): 0 n | TEAE Abdominal pain lower (15 mg): 0 n | TEAE Abnormal dreams (15 mg): 0 n | TEAE Back pain (15 mg): 0 n | TEAE Balance disorder (15 mg): 0 n | TEAE Blood pressure systolic increased (15 mg): 0 n | TEAE Cough (15 mg): 0 n | TEAE Depressed mood (15 mg): 0 n | TEAE Diarrhoea (15 mg): 0 n | TEAE Dizziness (15 mg): 3 n | TEAE Euphoric mood (15 mg): 0 n | TEAE Feeling of relaxation (15 mg): 0 n | TEAE Headache (15 mg): 1 n | TEAE Hypervigilance (15 mg): 0 n | TEAE Insomnia (15 mg): 1 n | TEAE Nocturia (15 mg): 0 n | TEAE Photophobia (15 mg): 0 n | TEAE Pollakiuria (15 mg): 1 n | TEAE Salivary hypersecretion (15 mg): 0 n | TEAE Visual impairment (15 mg): 2 n | TEAE Vomiting (15 mg): 0 n | TEAE by Highest Relationship: Not Related (15 mg): 0 n | TEAE by Highest Relationship: Related (15 mg): 3 n | TEAE by Highest Severity: Mild (15 mg): 3 n | TEAE by Highest Severity: Moderate (15 mg): 0 n | TEAE by Highest Severity: Severe (15 mg): 0 n | AE Leading to Study Drug Discontinuation (25 mg): 1 n | Any SAEs (25 mg): 0 n | Any TEAE (25 mg): 5 n | Death (25 mg): 0 n | TEAE Abdominal pain (25 mg): 0 n | TEAE Abdominal pain lower (25 mg): 0 n | TEAE Abnormal dreams (25 mg): 0 n | TEAE Back pain (25 mg): 1 n | TEAE Balance disorder (25 mg): 1 n | TEAE Blood pressure systolic increased (25 mg): 1 n | TEAE Cough (25 mg): 0 n | TEAE Depressed mood (25 mg): 0 n | TEAE Diarrhoea (25 mg): 0 n | TEAE Dizziness (25 mg): 3 n | TEAE Euphoric mood (25 mg): 1 n | TEAE Feeling of relaxation (25 mg): 1 n | TEAE Headache (25 mg): 0 n | TEAE Hypervigilance (25 mg): 0 n | TEAE Insomnia (25 mg): 3 n | TEAE Nocturia (25 mg): 0 n | TEAE Photophobia (25 mg): 0 n | TEAE Pollakiuria (25 mg): 2 n | TEAE Salivary hypersecretion (25 mg): 1 n | TEAE Visual impairment (25 mg): 1 n | TEAE Vomiting (25 mg): 0 n | TEAE by Highest Relationship: Not Related (25 mg): 0 n | TEAE by Highest Relationship: Related (25 mg): 5 n | TEAE by Highest Severity: Mild (25 mg): 4 n | TEAE by Highest Severity: Moderate (25 mg): 1 n | TEAE by Highest Severity: Severe (25 mg): 0 n | AE Leading to Study Drug Discontinuation (Total (N = 24)): 1 n | Any SAEs (Total (N = 24)): 0 n | Any TEAE (Total (N = 24)): 15 n | Death (Total (N = 24)): 0 n | TEAE Abdominal pain (Total (N = 24)): 1 n | TEAE Abdominal pain lower (Total (N = 24)): 1 n | TEAE Abnormal dreams (Total (N = 24)): 1 n | TEAE Back pain (Total (N = 24)): 1 n | TEAE Balance disorder (Total (N = 24)): 1 n | TEAE Blood pressure systolic increased (Total (N = 24)): 1 n | TEAE Cough (Total (N = 24)): 1 n | TEAE Depressed mood (Total (N = 24)): 1 n | TEAE Diarrhoea (Total (N = 24)): 2 n | TEAE Dizziness (Total (N = 24)): 6 n | TEAE Euphoric mood (Total (N = 24)): 1 n | TEAE Feeling of relaxation (Total (N = 24)): 1 n | TEAE Headache (Total (N = 24)): 1 n | TEAE Hypervigilance (Total (N = 24)): 1 n | TEAE Insomnia (Total (N = 24)): 6 n | TEAE Nocturia (Total (N = 24)): 1 n | TEAE Photophobia (Total (N = 24)): 1 n | TEAE Pollakiuria (Total (N = 24)): 3 n | TEAE Salivary hypersecretion (Total (N = 24)): 1 n | TEAE Visual impairment (Total (N = 24)): 3 n | TEAE Vomiting (Total (N = 24)): 1 n | TEAE by Highest Relationship: Not Related (Total (N = 24)): 5 n | TEAE by Highest Relationship: Related (Total (N = 24)): 10 n | TEAE by Highest Severity: Mild (Total (N = 24)): 13 n | TEAE by Highest Severity: Moderate (Total (N = 24)): 2 n | TEAE by Highest Severity: Severe (Total (N = 24)): 0 n | Tolerability (multiple doses 3 to 25 mg once daily for 10 days): well tolerated
